In brackets after ≈: the same amount, converted by molar mass. Read-outs that look alike come from different tables or passages of the source.
System: clinical Staphylococcus epidermidis strains
Test: Minimal bactericidal concentration (MBC), MBC/MIC
Assay type: cell-based
Settings: for MBC: Staphylococcus epidermidis
Protocol: 2.5 Evaluation of bacteriostatic/bactericidal properties […]
determining MBC (Minimal Bactericidal Concentration) values. The study was conducted in accordance with the guidelines of the Clinical and Laboratory Standards Institute (CLSI).13 The MBC value was assumed to be the concentration of the compound inhibiting the growth of strains in 99.9%. Then, the value of the MBC/MIC ratio was calculated to assess its bactericidal or bacteriostatic activity. […]

O=C(Nc1cccc(Cl)c1)NC1CCN(CCC(Oc2ccc(C(F)(F)F)cc2)c2cccs2)CC1 (stereo not drawn) [Compound 25]
MBC (81 clinical strains (Table S5), read-out: Average of MBC): 29.2 µg/mL (≈ 54.2 µM)
MBC (clinical strain 1 (Table S5), read-out: MBC): 25 µg/mL (≈ 46.5 µM)
MBC (clinical strain 2 (Table S5), read-out: MBC): 25 µg/mL (≈ 46.5 µM)
MBC (clinical strain 3 (Table S5), read-out: MBC): 12.5 µg/mL (≈ 23.2 µM)
MBC (clinical strain 4 (Table S5), read-out: MBC): 25 µg/mL (≈ 46.5 µM)
MBC (clinical strain 5 (Table S5), read-out: MBC): 50 µg/mL (≈ 92.9 µM)
MBC (clinical strain 6 (Table S5), read-out: MBC): 25 µg/mL (≈ 46.5 µM)
MBC (clinical strain 7 (Table S5), read-out: MBC): 25 µg/mL (≈ 46.5 µM)
MBC (clinical strain 8 (Table S5), read-out: MBC): 12.5 µg/mL (≈ 23.2 µM)
MBC (clinical strain 9 (Table S5), read-out: MBC): 50 µg/mL (≈ 92.9 µM)
MBC (clinical strain 10 (Table S5), read-out: MBC): 50 µg/mL (≈ 92.9 µM)
MBC (clinical strain 11 (Table S5), read-out: MBC): 25 µg/mL (≈ 46.5 µM)
MBC (clinical strain 12 (Table S5), read-out: MBC): 25 µg/mL (≈ 46.5 µM)
MBC (clinical strain 13 (Table S5), read-out: MBC): 25 µg/mL (≈ 46.5 µM)
MBC (clinical strain 14 (Table S5), read-out: MBC): 25 µg/mL (≈ 46.5 µM)
MBC (clinical strain 15 (Table S5), read-out: MBC): 50 µg/mL (≈ 92.9 µM)
MBC (clinical strain 16 (Table S5), read-out: MBC): 25 µg/mL (≈ 46.5 µM)
MBC (clinical strain 17 (Table S5), read-out: MBC): 1.6 µg/mL (≈ 2.97 µM)
MBC (clinical strain 18 (Table S5), read-out: MBC): 50 µg/mL (≈ 92.9 µM)
MBC (clinical strain 19 (Table S5), read-out: MBC): 12.5 µg/mL (≈ 23.2 µM)
MBC (clinical strain 20 (Table S5), read-out: MBC): 25 µg/mL (≈ 46.5 µM)
MBC (clinical strain 21 (Table S5), read-out: MBC): 25 µg/mL (≈ 46.5 µM)
MBC (clinical strain 22 (Table S5), read-out: MBC): 12.5 µg/mL (≈ 23.2 µM)
MBC (clinical strain 23 (Table S5), read-out: MBC): 25 µg/mL (≈ 46.5 µM)
MBC (clinical strain 24 (Table S5), read-out: MBC): 25 µg/mL (≈ 46.5 µM)
MBC (clinical strain 25 (Table S5), read-out: MBC): 12.5 µg/mL (≈ 23.2 µM)
MBC (clinical strain 26 (Table S5), read-out: MBC): 50 µg/mL (≈ 92.9 µM)
MBC (clinical strain 27 (Table S5), read-out: MBC): 50 µg/mL (≈ 92.9 µM)
MBC (clinical strain 28 (Table S5), read-out: MBC): 12.5 µg/mL (≈ 23.2 µM)
MBC (clinical strain 29 (Table S5), read-out: MBC): 6.25 µg/mL (≈ 11.6 µM)
MBC (clinical strain 30 (Table S5), read-out: MBC): 12.5 µg/mL (≈ 23.2 µM)
MBC (clinical strain 31 (Table S5), read-out: MBC): 25 µg/mL (≈ 46.5 µM)
MBC (clinical strain 32 (Table S5), read-out: MBC): 25 µg/mL (≈ 46.5 µM)
MBC (clinical strain 33 (Table S5), read-out: MBC): 25 µg/mL (≈ 46.5 µM)
MBC (clinical strain 34 (Table S5), read-out: MBC): 25 µg/mL (≈ 46.5 µM)
MBC (clinical strain 35 (Table S5), read-out: MBC): 25 µg/mL (≈ 46.5 µM)
MBC (clinical strain 36 (Table S5), read-out: MBC): 25 µg/mL (≈ 46.5 µM)
MBC (clinical strain 37 (Table S5), read-out: MBC): 25 µg/mL (≈ 46.5 µM)
MBC (clinical strain 38 (Table S5), read-out: MBC): 25 µg/mL (≈ 46.5 µM)
MBC (clinical strain 39 (Table S5), read-out: MBC): 12.5 µg/mL (≈ 23.2 µM)
MBC (clinical strain 40 (Table S5), read-out: MBC): 12.5 µg/mL (≈ 23.2 µM)
MBC (clinical strain 41 (Table S5), read-out: MBC): 25 µg/mL (≈ 46.5 µM)
MBC (clinical strain 42 (Table S5), read-out: MBC): 12.5 µg/mL (≈ 23.2 µM)
MBC (clinical strain 43 (Table S5), read-out: MBC): 25 µg/mL (≈ 46.5 µM)
MBC (clinical strain 44 (Table S5), read-out: MBC): 25 µg/mL (≈ 46.5 µM)
MBC (clinical strain 45 (Table S5), read-out: MBC): 25 µg/mL (≈ 46.5 µM)
MBC (clinical strain 46 (Table S5), read-out: MBC): 12.5 µg/mL (≈ 23.2 µM)
MBC (clinical strain 47 (Table S5), read-out: MBC): 25 µg/mL (≈ 46.5 µM)
MBC (clinical strain 48 (Table S5), read-out: MBC): 25 µg/mL (≈ 46.5 µM)
MBC (clinical strain 49 (Table S5), read-out: MBC): 1.6 µg/mL (≈ 2.97 µM)
MBC (clinical strain 50 (Table S5), read-out: MBC): 50 µg/mL (≈ 92.9 µM)
MBC (clinical strain 51 (Table S5), read-out: MBC): 50 µg/mL (≈ 92.9 µM)
MBC (clinical strain 52 (Table S5), read-out: MBC): 50 µg/mL (≈ 92.9 µM)
MBC (clinical strain 53 (Table S5), read-out: MBC): 50 µg/mL (≈ 92.9 µM)
MBC (clinical strain 54 (Table S5), read-out: MBC): 12.5 µg/mL (≈ 23.2 µM)
MBC (clinical strain 55 (Table S5), read-out: MBC): 50 µg/mL (≈ 92.9 µM)
MBC (clinical strain 56 (Table S5), read-out: MBC): 25 µg/mL (≈ 46.5 µM)
MBC (clinical strain 57 (Table S5), read-out: MBC): 50 µg/mL (≈ 92.9 µM)
MBC (clinical strain 58 (Table S5), read-out: MBC): 12.5 µg/mL (≈ 23.2 µM)
MBC (clinical strain 59 (Table S5), read-out: MBC): 50 µg/mL (≈ 92.9 µM)
MBC (clinical strain 60 (Table S5), read-out: MBC): 50 µg/mL (≈ 92.9 µM)
MBC (clinical strain 61 (Table S5), read-out: MBC): 25 µg/mL (≈ 46.5 µM)
MBC (clinical strain 62 (Table S5), read-out: MBC): 25 µg/mL (≈ 46.5 µM)
MBC (clinical strain 63 (Table S5), read-out: MBC): 25 µg/mL (≈ 46.5 µM)
MBC (clinical strain 64 (Table S5), read-out: MBC): 50 µg/mL (≈ 92.9 µM)
MBC (clinical strain 65 (Table S5), read-out: MBC): 50 µg/mL (≈ 92.9 µM)
MBC (clinical strain 66 (Table S5), read-out: MBC): 25 µg/mL (≈ 46.5 µM)
MBC (clinical strain 67 (Table S5), read-out: MBC): 50 µg/mL (≈ 92.9 µM)
MBC (clinical strain 68 (Table S5), read-out: MBC): 50 µg/mL (≈ 92.9 µM)
MBC (clinical strain 69 (Table S5), read-out: MBC): 25 µg/mL (≈ 46.5 µM)
MBC (clinical strain 70 (Table S5), read-out: MBC): 50 µg/mL (≈ 92.9 µM)
MBC (clinical strain 71 (Table S5), read-out: MBC): 25 µg/mL (≈ 46.5 µM)
MBC (clinical strain 72 (Table S5), read-out: MBC): 50 µg/mL (≈ 92.9 µM)
MBC (clinical strain 73 (Table S5), read-out: MBC): 6.25 µg/mL (≈ 11.6 µM)
MBC (clinical strain 74 (Table S5), read-out: MBC): 50 µg/mL (≈ 92.9 µM)
MBC (clinical strain 75 (Table S5), read-out: MBC): 50 µg/mL (≈ 92.9 µM)
MBC (clinical strain 76 (Table S5), read-out: MBC): 25 µg/mL (≈ 46.5 µM)
MBC (clinical strain 77 (Table S5), read-out: MBC): 50 µg/mL (≈ 92.9 µM)
MBC (clinical strain 78 (Table S5), read-out: MBC): 25 µg/mL (≈ 46.5 µM)
MBC (clinical strain 79 (Table S5), read-out: MBC): 6.25 µg/mL (≈ 11.6 µM)
MBC (clinical strain 80 (Table S5), read-out: MBC): 50 µg/mL (≈ 92.9 µM)
MBC (clinical strain 81 (Table S5), read-out: MBC): 3.12 µg/mL (≈ 5.81 µM)
MBC (read-out: Mean MBC): 29.2 µg/mL (≈ 54.2 µM)
MBC/MIC ratio (clinical S. epidermidis strains): 16
MBC/MIC (clinical strain 1 (Table S5)): 16
MBC/MIC (clinical strain 2 (Table S5)): 16
MBC/MIC (clinical strain 3 (Table S5)): 16
MBC/MIC (clinical strain 4 (Table S5)): 16
MBC/MIC (clinical strain 5 (Table S5)): 16
MBC/MIC (clinical strain 6 (Table S5)): 16
MBC/MIC (clinical strain 7 (Table S5)): 16
MBC/MIC (clinical strain 8 (Table S5)): 16
MBC/MIC (clinical strain 9 (Table S5)): 16
MBC/MIC (clinical strain 10 (Table S5)): 16
MBC/MIC (clinical strain 11 (Table S5)): 16
MBC/MIC (clinical strain 12 (Table S5)): 16
MBC/MIC (clinical strain 13 (Table S5)): 16
MBC/MIC (clinical strain 14 (Table S5)): 16
MBC/MIC (clinical strain 15 (Table S5)): 16
MBC/MIC (clinical strain 16 (Table S5)): 16
MBC/MIC (clinical strain 17 (Table S5)): 16
MBC/MIC (clinical strain 18 (Table S5)): 16
MBC/MIC (clinical strain 19 (Table S5)): 16
MBC/MIC (clinical strain 20 (Table S5)): 16
MBC/MIC (clinical strain 21 (Table S5)): 16
MBC/MIC (clinical strain 22 (Table S5)): 16
MBC/MIC (clinical strain 23 (Table S5)): 16
MBC/MIC (clinical strain 24 (Table S5)): 16
MBC/MIC (clinical strain 25 (Table S5)): 16
MBC/MIC (clinical strain 26 (Table S5)): 16
MBC/MIC (clinical strain 27 (Table S5)): 16
MBC/MIC (clinical strain 28 (Table S5)): 16
MBC/MIC (clinical strain 29 (Table S5)): 16
MBC/MIC (clinical strain 30 (Table S5)): 16
MBC/MIC (clinical strain 31 (Table S5)): 16
MBC/MIC (clinical strain 32 (Table S5)): 16
MBC/MIC (clinical strain 33 (Table S5)): 16
MBC/MIC (clinical strain 34 (Table S5)): 16
MBC/MIC (clinical strain 35 (Table S5)): 16
MBC/MIC (clinical strain 36 (Table S5)): 16
MBC/MIC (clinical strain 37 (Table S5)): 16
MBC/MIC (clinical strain 38 (Table S5)): 16
MBC/MIC (clinical strain 39 (Table S5)): 16
MBC/MIC (clinical strain 40 (Table S5)): 16
MBC/MIC (clinical strain 41 (Table S5)): 16
MBC/MIC (clinical strain 42 (Table S5)): 16
MBC/MIC (clinical strain 43 (Table S5)): 16
MBC/MIC (clinical strain 44 (Table S5)): 16
MBC/MIC (clinical strain 45 (Table S5)): 16
MBC/MIC (clinical strain 46 (Table S5)): 16
MBC/MIC (clinical strain 47 (Table S5)): 16
MBC/MIC (clinical strain 48 (Table S5)): 16
MBC/MIC (clinical strain 49 (Table S5)): 16
MBC/MIC (clinical strain 50 (Table S5)): 16
MBC/MIC (clinical strain 51 (Table S5)): 16
MBC/MIC (clinical strain 52 (Table S5)): 16
MBC/MIC (clinical strain 53 (Table S5)): 16
MBC/MIC (clinical strain 54 (Table S5)): 16
MBC/MIC (clinical strain 55 (Table S5)): 16
MBC/MIC (clinical strain 56 (Table S5)): 16
MBC/MIC (clinical strain 57 (Table S5)): 16
MBC/MIC (clinical strain 58 (Table S5)): 16
MBC/MIC (clinical strain 59 (Table S5)): 16
MBC/MIC (clinical strain 60 (Table S5)): 16
MBC/MIC (clinical strain 61 (Table S5)): 16
MBC/MIC (clinical strain 62 (Table S5)): 16
MBC/MIC (clinical strain 63 (Table S5)): 16
MBC/MIC (clinical strain 64 (Table S5)): 16
MBC/MIC (clinical strain 65 (Table S5)): 16
MBC/MIC (clinical strain 66 (Table S5)): 16
MBC/MIC (clinical strain 67 (Table S5)): 16
MBC/MIC (clinical strain 68 (Table S5)): 16
MBC/MIC (clinical strain 69 (Table S5)): 16
MBC/MIC (clinical strain 70 (Table S5)): 16
MBC/MIC (clinical strain 71 (Table S5)): 16
MBC/MIC (clinical strain 72 (Table S5)): 16
MBC/MIC (clinical strain 73 (Table S5)): 16
MBC/MIC (clinical strain 74 (Table S5)): 16
MBC/MIC (clinical strain 75 (Table S5)): 16
MBC/MIC (clinical strain 76 (Table S5)): 16
MBC/MIC (clinical strain 77 (Table S5)): 16
MBC/MIC (clinical strain 78 (Table S5)): 16
MBC/MIC (clinical strain 79 (Table S5)): 16
MBC/MIC (clinical strain 80 (Table S5)): 16
MBC/MIC (clinical strain 81 (Table S5)): 16
